# Experimental data taken from patent publication US20250034150A1, “BTK INHIBITORS” (BIOGEN MA INC., priority 2021, published 2025).
# What was measured:
# [1] = biological target: T1, BTK (Homo sapiens, UniProt Q06187); test: In Vitro BTK Kinase Assay: Btk-PolyGAT-LS Assay; assay type: biochemical; settings: active BTK enzyme 0.25 nM, polyGAT 100 nM, 30 minutes, TRF readout; read-out: In Vitro BTK Kinase Assay IC50 Score
# T1 construct: purchased Upstate 14-552
# Method in brief: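 Active BTK at 0.25 nM phosphorylated 100 nM fluorescein-polyGAT peptide at 10 μM ATP for 30 minutes. Buffer was Tris pH 7.5 with MgCl2, DTT, Triton X-100 and casein, and reactions were stopped with EDTA. Phospho-peptide was detected by Tb-PY20 antibody TR-FRET, and IC50 came from a four-parameter fit normalized to DMSO and EDTA controls.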
# [2] = test system: CD69 expression on CD19+ B cells in human whole blood; test: In Vitro whole blood CD69 Assay; assay type: cell-based; settings: B-cell; human heparinized whole blood, anti-human IgD stimulation overnight, CD19+ B cells, flow cytometry; read-out: In Vitro HWB CD69 Assay IC50 Score
# Method in brief: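 Heparinized healthy-donor human whole blood was preincubated with compound (0.1% DMSO) for 30 min at 37 °C. Stimulation used 0.1 µg/mL anti-IgD-dextran or 20 µg/mL rabbit F(ab′)2 anti-IgD for 18–22 h at 37 °C. CD69 on gated CD19+ B cells was then measured by flow cytometry.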
# T1 sequence (Q06187 whole entry): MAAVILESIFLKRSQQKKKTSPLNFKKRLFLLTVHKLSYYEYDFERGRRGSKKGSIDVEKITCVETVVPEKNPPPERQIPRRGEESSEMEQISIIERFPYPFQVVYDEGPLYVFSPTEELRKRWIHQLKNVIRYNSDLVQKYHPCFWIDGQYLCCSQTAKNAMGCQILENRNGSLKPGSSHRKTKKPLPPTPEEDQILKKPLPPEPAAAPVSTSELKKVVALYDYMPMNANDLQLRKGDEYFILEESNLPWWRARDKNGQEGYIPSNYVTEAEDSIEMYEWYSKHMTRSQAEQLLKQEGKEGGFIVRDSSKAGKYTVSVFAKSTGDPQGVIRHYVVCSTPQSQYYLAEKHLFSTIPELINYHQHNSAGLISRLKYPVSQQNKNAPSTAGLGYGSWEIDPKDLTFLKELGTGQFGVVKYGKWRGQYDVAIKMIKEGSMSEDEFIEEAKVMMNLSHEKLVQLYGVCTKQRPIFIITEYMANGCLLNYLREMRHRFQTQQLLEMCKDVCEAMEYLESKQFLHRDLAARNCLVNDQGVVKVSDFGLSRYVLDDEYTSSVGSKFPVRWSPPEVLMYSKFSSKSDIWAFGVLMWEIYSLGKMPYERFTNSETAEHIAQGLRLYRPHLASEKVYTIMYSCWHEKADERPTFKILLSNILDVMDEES
smiles,measurement,setting,value
"Cn1cc(-c2cn3nccc3c(-c3cc(F)c(CNC(=O)c4noc(C(C)(C)C)n4)cc3F)n2)cn1 [Example 84, 5-(tert-butyl)-N-(2,5-difluoro-4-(6-(1-methyl-1H-pyrazol-4-yl)pyrazolo[1,5-a]pyrazin-4-yl)benzyl)-1,2,4-oxadiazole-3-carboxamide]",IC50,[1],< 1 nM
same,IC50,[2],< 1000 nM
